According to patent US12161631B2, “Liquid pharmaceutical formulation” (PROJECT PHARMACEUTICS GMBH, priority 2018, dated 2024):
Read-outs that look alike come from different tables or passages of the source.

Key:
[1] = formulation CaCl2 99.9 mg | PG ad 1000 mg
Method: The purity of Bendamustine hydrochloride and quantity was determined as follows using a standard curve: • Column type: C18, 100×4.6 mm, 2.6 μm • Mobile phase: A: Water/ACN/TFA=950/50/1 v/v/v • B: Water/ACN/TFA=50/950/1 v/v/v • Column temperature: 25° C. • Autosampler temperature: 25° C. • Flow rate: 1.2 mL/min • Detection wavelength: 234 nm HPLC Gradient
To serve as a direct reference, Bendamustine-HCl was also included in the study.
The following compositions were prepared, filled into type 1 glass vials, closed with a rubber stopper and crimp caped. The closed vials were stored at a temperature of 40° C.
At defined time points samples were taken and analyzed be mans of the RP-HPLC method described in Example 1.

[2] = format: physicochemical; conditions: in propylene glycol and in PEG400/PG solvent mixture
Method: The following Bendamustine containing compositions (25 mg Bendamustine/HCl in 4 g solution) were prepared, filled into type 1 glass vials.

[3] = Stabilizer solubility study (Example 2); format: physicochemical; conditions: dissolved at 40° C., stored at 2° C.-5° C. over-night
Method: The solubility of potential stabilizers to be tested for Bendamustine-HCl liquid formulation was evaluated in polypropylene glycol. The respective chemical was dissolved in water under continuous stirring at 40° C.

[4] = Dose dependent stabilization effect of calcium chloride in PEG400 (Example 8), purity and content by RP-HPLC; conditions: PEG400/PG and PEG400/ethanol solvent mixtures; 40° C., 8 weeks
Method: The organic solvent systems PEG400 with a small amount of alcoholic solvents 1,2-propanediol or ethanol (10% w/w) are to be investigated.
The following Bendamustine containing compositions were prepared. […] The preparations were filled into type 1 glass vials and stoppered with nitrogen overlay. The closed vials were stored at 40° C.:
The purity of Bendamustine-HCl was assessed via RP-HPLC and expressed by relative main peak area. Measurements were carried out in duplicate.
The content of Bendamustine-HCl was assessed via RP-HPLC using a 25 mg/g Bendamustine-HCl standard as reference. Standard solutions were freshly prepared for each individual sampling time point. Standard curves were recorded in duplicate at the beginning and at the end of each sequence. Samples were analyzed in duplicate.

Nc1ncn([C@@H]2O[C@H](CO)[C@@H](O)[C@H]2O)c(=O)n1 [Azacitidine]
Purity at 40° C. as relative main peak area [%] by RP-HPLC ([1]; 0 days): 100% | Purity at 40° C. as relative main peak area [%] by RP-HPLC ([1]; 7 days): 99.8% | Purity at 40° C. as relative main peak area [%] by RP-HPLC ([1]; 14 days): 97.7% | Purity at 40° C. as relative main peak area [%] by RP-HPLC ([1]; 28 days): 0.0%

N[C@@H](Cc1ccc(N(CCCl)CCCl)cc1)C(=O)O [Melphalan]
Purity at 40° C. as relative main peak area [%] by RP-HPLC ([1]; 0 days): 99.8% | Rel. content at 40° C. determined by RP-HPLC using a calibration curve ([1]; 0 days (ref. T=0)): 100% | Purity at 40° C. as relative main peak area [%] by RP-HPLC ([1]; 7 days): 98.1% | Rel. content at 40° C. determined by RP-HPLC using a calibration curve ([1]; 7 days (ref. T=0)): 84.6% | Purity at 40° C. as relative main peak area [%] by RP-HPLC ([1]; 14 days): 97.4% | Rel. content at 40° C. determined by RP-HPLC using a calibration curve ([1]; 14 days (ref. T=0)): 86.2% | Purity at 40° C. as relative main peak area [%] by RP-HPLC ([1]; 28 days): 95.4% | Rel. content at 40° C. determined by RP-HPLC using a calibration curve ([1]; 28 days (ref. T=0)): 86.5%

CC(=O)[O-].[K+] [KAc]
stabilizing effect on Bendamustine (conclusion) [2]: no significant stabilizing effect

[Br-].[Br-].[Ca+2] [CaBr2]
Outcome (stabilizer solubility) ([3]; target concentration 0.9 mol/kg): Complete dissolution

C[N+](C)(C)CCO.[Cl-] [Choline-HCl, choline chloride]
Outcome (stabilizer solubility) ([3]; target concentration 1.8 mol/kg): Complete dissolution

[Ca+2].[Cl-].[Cl-] [CaCl2, calcium chloride]
stabilizing effect on Bendamustine (discussion, in words) [4]: clear dose depending stabilizing effect

O=NN(CCCl)C(=O)NCCCl [Carmustine]
Purity at 40° C. as relative main peak area [%] by RP-HPLC ([1]; 0 days): 95.8% | Rel. content at 40° C. determined by RP-HPLC using a calibration curve ([1]; 0 days (ref. T=0)): 100% | Purity at 40° C. as relative main peak area [%] by RP-HPLC ([1]; 7 days): 2.1% | Rel. content at 40° C. determined by RP-HPLC using a calibration curve ([1]; 7 days (ref. T=0)): 3.6% | Purity at 40° C. as relative main peak area [%] by RP-HPLC ([1]; 14 days): 2.0% | Rel. content at 40° C. determined by RP-HPLC using a calibration curve ([1]; 14 days (ref. T=0)): 1.3% | Purity at 40° C. as relative main peak area [%] by RP-HPLC ([1]; 28 days): 1.9% | Rel. content at 40° C. determined by RP-HPLC using a calibration curve ([1]; 28 days (ref. T=0)): 1.3%

Cn1c(CCCC(=O)O)nc2cc(N(CCCl)CCCl)ccc21 [Bendamustine]
Purity at 40° C. as relative main peak area [%] by RP-HPLC ([1]; 0 days): 99.7% | Rel. content at 40° C. determined by RP-HPLC using a calibration curve ([1]; 0 days (ref. T=0)): 100% | Purity at 40° C. as relative main peak area [%] by RP-HPLC ([1]; 7 days): 98.9% | Rel. content at 40° C. determined by RP-HPLC using a calibration curve ([1]; 7 days (ref. T=0)): 98.9% | Purity at 40° C. as relative main peak area [%] by RP-HPLC ([1]; 14 days): 98.4% | Rel. content at 40° C. determined by RP-HPLC using a calibration curve ([1]; 14 days (ref. T=0)): 98.4% | Rel. content at 40° C. determined by RP-HPLC using a calibration curve ([1]; 28 days (ref. T=0)): 95.3%
